US20100286603A1, “KIT AND METHOD FOR PREPARATION OF A DEGARELIX SOLUTION” (priority 2009, published 2010)
Where a SMILES comes first, the peptide text is derived from it. [ ]: non-standard residue; d: D form. The star is where a group is joined. dPhe(4-NHCONH2) = NC(=O)Nc1ccc(C[C@@H](N)C(=O)O)cc1; Dihydroorotyl(S) = O=C1C[C@@H](C(=O)*)NC(=O)N1; dPhe(4-Cl) = N[C@H](Cc1ccc(Cl)cc1)C(=O)O; Phe(4-NH2) = Nc1ccc(C[C@H](N)C(=O)O)cc1; d2Nal = N[C@H](Cc1ccc2ccccc2c1)C(=O)O; Lys(iPr) = CC(C)NCCCC[C@H](N)C(=O)O; d3Pal = N[C@H](Cc1cccnc1)C(=O)O

Experiments:
[1] = Reconstitution of lyophilised Degarelix with water for injection, swirled by hand (laboratory testing); assay type: physicochemical
Protocol: The WFI in the syringe is then transferred into the Degarelix vial (I) and the assembly of vial, needle, and syringe is swirled by hand to ensure that the lyophilised Degarelix has completely gone into solution. […] In laboratory testing, the reconstitution times for hand swirled Degarelix solutions comprising 80 mg and 120 mg of lyophilised Degarelix are about 5 minutes and 7 minutes respectively. The slowest reconstitution times are considerably greater, however, and can be up to 15 minutes. To ensure that the Degarelix drug product has been fully reconstituted, the care-provider is required to swirl the assembly, by hand, for a period of up to 15 minutes. To assess whether the drug has been reconstituted, the care-provider periodically checks the vial to determine whether the solution is completely clear or not.

[2] = Reconstitution of lyophilised Degarelix with water for injection using an automatic swirling machine (laboratory tests); assay type: physicochemical; settings: tested for the 80 mg and 120 mg doses
Protocol: For example, laboratory tests have shown that average reconstitution times when an automatic swirling machine is used are in the region of 0.8 minutes and the slowest times for reconstitution are in the region of 1.25 to 1.5 minutes (tested for the 80 mg and 120 mg doses). This compares well with the present system of swirling by hand, where the slowest times for reconstitution are near to 15 minutes. An automatic mixing apparatus may enable a reconstitution protocol to be formulated in which the Degarelix and WFI are mixed for a relatively short period of time, after which the Degarelix should in the vast majority of cases have gone into solution, as compared with mixing by hand. It is contemplated that the care-provider may check the clarity of the solution after it has been reconstituted with the automatic mixing apparatus and, if fully reconstituted, administer the solution to the patient.

testosterone = settings: used in a clinical preparation; cited from earlier work

## CC(=O)N[C@H](Cc1ccc2ccccc2c1)C(=O)N[C@H](Cc1ccc(Cl)cc1)C(=O)N[C@H](Cc1cccnc1)C(=O)N[C@@H](CO)C(=O)N[C@@H](Cc1ccc(NC(=O)[C@@H]2CC(=O)NC(=O)N2)cc1)C(=O)N[C@H](Cc1ccc(NC(N)=O)cc1)C(=O)N[C@@H](CC(C)C)C(=O)N[C@@H](CCCCNC(C)C)C(=O)N1CCC[C@H]1C(=O)N[C@H](C)C(N)=O [Degarelix] (Ac-[d2Nal][dPhe(4-Cl)][d3Pal]S[Phe(4-NH2)](Dihydroorotyl(S))[dPhe(4-NHCONH2)]L[Lys(iPr)]P[dA]-NH2)
[1]; 80 mg of lyophilised Degarelix
  reconstitution time: about 5 minutes
[1]; 120 mg of lyophilised Degarelix
  reconstitution time: ~7 min
[2]
  average reconstitution time: ~0.8 min
testosterone
  levels of testosterone: reduction in levels of testosterone
